# Laboratory results as given in patent publication US10947242B2, “[1,2,4]triazolo[1,5and#8208;A]pyrimidine compounds as PDE2 inhibitors” (Janssen Pharmaceutica NV, priority 2016, dated 2021).
# Read-outs that look alike come from different tables or passages of the source.
# Experiments:
# Format in all cases: biochemical
# [1] = biological target: T1, Human recombinant PDE2A (hPDE2A) (Homo sapiens, UniProt O00408); assay: In vitro assay PDE2A (SPA, 3H-cGMP hydrolysis); conditions: for Emax: read-out: hPDE2A Emax
# T1 construct: His tag (inferred from metal chelate purification); made in house; host or cells: Sf9 insect cells (baculovirus)
# [2] = biological target: T2, Human recombinant PDE3A (hPDE3A) (Homo sapiens, UniProt Q14432); assay: In vitro assay PDE3A (SPA, 3H-cAMP hydrolysis); conditions: for IC50: hPDE3B pIC50, read-out: pIC50 (converted); for Emax: read-out: hPDE3B Emax, read-out: Emax;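 on all read-outs here: the method names PDE3A and the table heading PDE3B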
# T2 construct: purchased Scottish Biomedical; host or cells: Sf9 insect cells
# Summary of the method: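 Human PDE3A, cloned from brain, as partially purified Sf9 lysate. Substrate 0.4 μM cAMP plus [3H]-cAMP (2.4 μCi/ml final) in 50 mM Tris pH 7.8, 8.3 mM MgCl2, 1.7 mM EGTA, 60 min at room temperature, 1% DMSO final. Hydrolysis read by SPA scintillation counting against no-enzyme blanks and DMSO controls.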
# [3] = biological target: T3, Human recombinant PDE10A (hPDE10A) (Homo sapiens, UniProt Q9Y233); assay: In vitro assay PDE10A, human clone (SPA, 3H-cAMP hydrolysis)
# T3 construct: His tag (inferred from metal chelate purification); made in house; host or cells: Sf9 insect cells (baculovirus)
# Summary of the method: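 Human recombinant PDE10A was expressed in Sf9 cells via baculovirus and incubated with compound in 50 mM Tris pH 7.8, 8.3 mM MgCl2, 1.7 mM EGTA. Substrate was 60 nM cAMP plus 0.008 μCi 3H-cAMP for 60 min at room temperature, read by SPA scintillation counting. Controls used 1% DMSO, and blanks omitted enzyme.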
# [4] = human recombinant PDE2A, 10 μM cGMP substrate, read-out: hPDE2A pIC50 (converted)
# [5] = read-out: hPDE2A pIC50 (converted)
# [6] = human clone (h), default, read-out: hPDE10A2 Emax
# [7] = human clone (h), default, read-out: hPDE10A2 pIC50 (converted)
# [8] = human clone by default (no (r) mark), read-out: hPDE10A2 or rPDE10A2 Emax
# [9] = human clone by default (no (r) mark), read-out: hPDE10A2 or rPDE10A2 pIC50 (converted)
# [10] = hPDE2A pIC50, human recombinant PDE2A, 10 μM cGMP substrate
# T1 sequence (O00408 whole entry): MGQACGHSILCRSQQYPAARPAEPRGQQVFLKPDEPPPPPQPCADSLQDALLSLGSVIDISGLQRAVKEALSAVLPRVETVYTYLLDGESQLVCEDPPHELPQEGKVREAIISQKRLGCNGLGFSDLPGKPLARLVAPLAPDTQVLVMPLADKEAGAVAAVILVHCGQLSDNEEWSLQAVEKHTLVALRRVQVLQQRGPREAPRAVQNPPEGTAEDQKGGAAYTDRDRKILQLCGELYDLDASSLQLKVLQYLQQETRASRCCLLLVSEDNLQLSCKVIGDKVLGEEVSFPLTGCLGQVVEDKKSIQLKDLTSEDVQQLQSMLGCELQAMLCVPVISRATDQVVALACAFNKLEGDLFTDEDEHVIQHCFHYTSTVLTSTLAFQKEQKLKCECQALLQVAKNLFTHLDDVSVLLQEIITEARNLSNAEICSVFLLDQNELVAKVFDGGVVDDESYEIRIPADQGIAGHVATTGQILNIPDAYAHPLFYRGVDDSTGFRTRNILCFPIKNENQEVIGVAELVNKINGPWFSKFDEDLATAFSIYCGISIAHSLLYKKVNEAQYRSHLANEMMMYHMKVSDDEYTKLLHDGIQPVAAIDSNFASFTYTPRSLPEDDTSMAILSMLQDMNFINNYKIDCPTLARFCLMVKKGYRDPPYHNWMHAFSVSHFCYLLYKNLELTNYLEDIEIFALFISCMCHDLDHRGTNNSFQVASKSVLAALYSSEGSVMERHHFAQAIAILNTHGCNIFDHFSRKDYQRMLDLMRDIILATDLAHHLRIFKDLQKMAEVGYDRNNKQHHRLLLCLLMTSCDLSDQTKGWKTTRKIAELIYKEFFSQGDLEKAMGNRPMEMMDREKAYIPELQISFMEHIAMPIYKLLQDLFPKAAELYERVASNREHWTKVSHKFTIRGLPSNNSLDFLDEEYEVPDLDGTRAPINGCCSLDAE
# T2 sequence (Q14432 whole entry): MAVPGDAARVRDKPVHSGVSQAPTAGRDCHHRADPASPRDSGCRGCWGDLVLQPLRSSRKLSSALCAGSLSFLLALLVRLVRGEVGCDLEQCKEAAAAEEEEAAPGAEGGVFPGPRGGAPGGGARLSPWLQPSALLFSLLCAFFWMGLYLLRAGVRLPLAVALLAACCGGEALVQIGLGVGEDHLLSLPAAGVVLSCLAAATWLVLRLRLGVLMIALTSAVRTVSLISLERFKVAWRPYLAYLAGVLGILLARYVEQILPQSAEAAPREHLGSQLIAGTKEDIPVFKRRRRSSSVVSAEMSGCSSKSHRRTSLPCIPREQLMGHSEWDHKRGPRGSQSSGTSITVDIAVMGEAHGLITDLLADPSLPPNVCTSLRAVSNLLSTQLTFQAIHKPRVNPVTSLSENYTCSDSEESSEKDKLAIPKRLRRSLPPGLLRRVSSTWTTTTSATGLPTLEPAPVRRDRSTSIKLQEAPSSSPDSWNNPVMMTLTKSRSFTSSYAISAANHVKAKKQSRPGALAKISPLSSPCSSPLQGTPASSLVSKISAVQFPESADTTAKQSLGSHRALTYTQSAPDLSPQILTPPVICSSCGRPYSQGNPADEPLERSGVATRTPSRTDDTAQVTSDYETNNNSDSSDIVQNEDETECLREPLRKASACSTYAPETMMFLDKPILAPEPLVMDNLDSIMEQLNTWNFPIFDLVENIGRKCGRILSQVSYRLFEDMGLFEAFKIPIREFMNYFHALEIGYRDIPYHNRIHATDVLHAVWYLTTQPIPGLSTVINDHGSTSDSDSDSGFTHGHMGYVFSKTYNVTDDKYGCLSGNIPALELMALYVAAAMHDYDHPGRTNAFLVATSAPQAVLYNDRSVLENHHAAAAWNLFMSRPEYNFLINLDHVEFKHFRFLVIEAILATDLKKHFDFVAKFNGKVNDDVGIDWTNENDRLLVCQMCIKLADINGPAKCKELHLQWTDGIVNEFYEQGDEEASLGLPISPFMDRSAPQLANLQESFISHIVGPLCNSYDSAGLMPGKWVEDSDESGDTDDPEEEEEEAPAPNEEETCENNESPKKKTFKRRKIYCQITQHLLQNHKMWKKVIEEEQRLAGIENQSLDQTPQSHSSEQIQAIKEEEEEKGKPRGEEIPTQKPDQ
# T3 sequence (Q9Y233 267-1055): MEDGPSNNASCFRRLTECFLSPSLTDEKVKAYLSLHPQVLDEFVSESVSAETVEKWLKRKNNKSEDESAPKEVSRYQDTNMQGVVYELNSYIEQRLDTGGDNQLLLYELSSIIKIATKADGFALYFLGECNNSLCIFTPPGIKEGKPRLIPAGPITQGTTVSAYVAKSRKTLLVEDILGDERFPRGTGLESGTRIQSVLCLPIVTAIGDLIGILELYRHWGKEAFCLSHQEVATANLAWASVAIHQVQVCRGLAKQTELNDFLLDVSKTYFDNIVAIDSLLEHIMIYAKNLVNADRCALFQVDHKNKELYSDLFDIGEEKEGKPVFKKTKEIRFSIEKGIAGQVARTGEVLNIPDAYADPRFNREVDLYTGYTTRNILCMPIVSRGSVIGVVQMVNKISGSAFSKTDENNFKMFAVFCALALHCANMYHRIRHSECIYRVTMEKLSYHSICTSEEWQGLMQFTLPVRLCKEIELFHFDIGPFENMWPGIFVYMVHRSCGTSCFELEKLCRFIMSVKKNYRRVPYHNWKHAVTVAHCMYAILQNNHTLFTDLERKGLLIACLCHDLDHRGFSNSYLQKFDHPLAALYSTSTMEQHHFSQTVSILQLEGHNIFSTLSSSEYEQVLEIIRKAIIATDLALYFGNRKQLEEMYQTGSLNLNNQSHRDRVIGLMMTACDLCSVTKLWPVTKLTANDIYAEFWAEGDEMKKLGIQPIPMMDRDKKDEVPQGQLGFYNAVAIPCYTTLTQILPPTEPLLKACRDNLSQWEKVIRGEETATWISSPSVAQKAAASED
Structure (SMILES),"IC50 [1, 4] [nM]",Emax ([1]; human recombinant PDE2A) [%],Emax [1] [%],"IC50 [1, 5] [nM]",IC50 [2] [nM],Emax [2] [%],"Emax [3, 6] [%]","IC50 [3, 7] [nM]","Emax [3, 8] [%]","IC50 [3, 9] [nM]",IC50 ([1]; hPDE2A pIC50) [nM],"IC50 [1, 10] [nM]"
C[C@@H]1CCN(C(=O)c2ccc(C(F)(F)F)nc2)C[C@H]1c1cc(C(F)F)nc2ncnn12 [Compound 167],97.7,97,97,97.7,5370,64,81,2000,,,,
C[C@@H]1CCN(C(=O)c2ccc(O)c(F)c2)C[C@H]1c1cc(C(F)F)nc2ncnn12 [Compound 168],3.98,98,98,3.98,5130,66,99,53.7,,,,
COc1ccc2nc(C(=O)N3CC[C@@H](C)[C@H](c4cc(C(F)F)nc5ncnn45)C3)sc2c1 [Compound 171],11.7,99,99,11.7,1150,93,97,355,,,,
COc1ccc2c(c1)cc(C(=O)N1CC[C@@H](C)[C@H](c3cc(C(F)F)nc4ncnn34)C1)n2C [Compound 172],4.57,101,101,4.57,269,98,100,32.4,,,,
C[C@@H]1CCN(C(=O)c2cnc(O)c(Cl)c2)C[C@H]1c1cc(C(F)F)nc2ncnn12 [Compound 173],13.8,101,101,13.8,> 10000,31,96,302,,,,
C[C@@H]1CCN(C(=O)c2cccc(C(C)(C)C#N)c2)C[C@H]1c1cc(C(F)F)nc2ncnn12 [Compound 175],4.9,100,100,4.9,6030,71,98,141,,,,
C[C@@H]1CCN(C(=O)c2cccc3ncoc23)C[C@H]1c1cc(C(F)F)nc2ncnn12 [Compound 176],9.12,100,100,9.12,8710,56,88,891,,,,
C[C@@H]1CCN(C(=O)c2cnc3n2CCCC3)C[C@H]1c1cc(C(F)F)nc2ncnn12 [Compound 179],21.4,100,100,21.4,> 10000,32,90,537,,,,
C[C@@H]1CCN(C(=O)c2ccc(N)nc2)C[C@H]1c1cc(C(F)F)nc2ncnn12 [Compound 181],4.57,98,98,4.57,> 10000,52,94,309,,,,
C[C@@H]1CCN(C(=O)c2cccc3ocnc23)C[C@H]1c1cc(C(F)F)nc2ncnn12 [Compound 183],26.3,99,99,26.3,> 10000,36,79,2290,,,,
Cc1cc([C@H]2CN(C(=O)c3ccc4nccn4c3)CC[C@@H]2C)n2ncnc2n1 [Compound 216],437,98,98,437,> 10000,26,67,4470,67,4470,,
Cc1cc([C@H]2CN(C(=O)c3cc(C)c(F)c(C)c3)CC[C@@H]2C)n2ncnc2n1 [Compound 217],,,99,,> 10000,37,72,4790,72,4790,562,562
Cc1cc([C@H]2CN(C(=O)c3cc(C)c(Cl)c(C)c3)CC[C@@H]2C)n2ncnc2n1 [Compound 218],,,100,,> 10000,51,85,2240,85,2240,204,204
C[C@@H]1CCN(C(=O)c2ccc(C3CC3)c(C3CC3)c2)C[C@H]1c1cc(C(F)F)nc2ncnn12 [Compound 226],0.871,100,100,0.871,129,100,100,81.3,100,81.3,,

# Further lines, with some results ahead:
"IC50 [1, 4] [nM]",Emax ([1]; human recombinant PDE2A) [%],Emax [1] [%],"IC50 [1, 5] [nM]",IC50 [2] [nM],Emax [2] [%],"Emax [3, 6] [%]","IC50 [3, 7] [nM]","Emax [3, 8] [%]","IC50 [3, 9] [nM]",Structure (SMILES),IC50 ([1]; hPDE2A pIC50) [nM],"IC50 [1, 10] [nM]"
5.25,99,99,5.25,1320,85,88,575,,,C[C@@H]1CCN(C(=O)c2cnc(N(C)C)nc2)C[C@H]1c1cc(C(F)F)nc2ncnn12 [Compound 174],,
9.55,99,99,9.55,> 10000,21,93,457,,,C[C@@H]1CCN(C(=O)c2cnn(C)c2)C[C@H]1c1cc(C(F)F)nc2ncnn12 [Compound 177],,
13.5,101,101,13.5,7410,62,92,794,,,C[C@@H]1CCN(C(=O)c2cccc3c2ncn3C)C[C@H]1c1cc(C(F)F)nc2ncnn12 [Compound 178],,
5.01,100,100,5.01,5130,66,97,174,,,C[C@@H]1CCN(C(=O)c2ccc(Cl)s2)C[C@H]1c1cc(C(F)F)nc2ncnn12 [Compound 180],,
25.1,100,100,25.1,> 10000,44,95,417,,,C[C@@H]1CCN(C(=O)c2cnc(Br)s2)C[C@H]1c1cc(C(F)F)nc2ncnn12 [Compound 182],,
,,98,21.9,3310,79,87,1200,,,COc1nc(C)c(C(=O)N2CC[C@@H](C)[C@H](c3cc(C(F)F)nc4ncnn34)C2)s1 [Compound 185],,
5.62,98,98,5.62,> 10000,35,91,417,,,Cc1nn(C)cc1C(=O)N1CC[C@@H](C)[C@H](c2cc(C(F)F)nc3ncnn23)C1 [Compound 198],,
282,98,98,282,> 10000,13,59,6760,59,6760,Cc1ccc(F)c(C(=O)N2CC[C@@H](C)[C@@H](c3cc(C(F)F)nc4ncnn34)C2)n1 [Compound 222],,
562,95,95,562,> 10000,18,33,> 10000,33,> 10000,Cc1cccnc1C(=O)N1CC[C@@H](C)[C@H](c2cc(C(F)F)nc3ncnn23)C1 [Compound 229],,
